Test results as given in ChEMBL document CHEMBL1201862, “PubChem BioAssay data set” (2004).
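A five-concentration, 48-hour dose response in 96-well plates underlies each endpoint, interpolated linearly between surrounding concentrations. Here, GI50 denotes the concentration required for 50% inhibition of growth.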 Activity calls are given as the source filed them. Cut-off read from the data, not from the text of the source: active = GI50 up to about 1.1 µM and inactive = higher.

Legend:
Assay in all cases: DTP human tumour cell line panel, 48 h
[1] = test system: KM12
[2] = test system: OVCAR-4
[3] = test system: UO-31
[4] = test system: SK-OV-3
[5] = test system: CCRF-CEM
[6] = test system: SF-295
[7] = test system: BT-549
[8] = test system: SNB-19
[9] = test system: SNB-75
[10] = test system: SF-268
[11] = test system: MDA-MB-231
[12] = test system: HT-29
[13] = test system: A549
[14] = test system: NCI-H460
[15] = test system: SK-MEL-2
[16] = test system: SK-MEL-5
[17] = test system: HOP-92
[18] = test system: IGROV-1
[19] = test system: MDA-N
[20] = test system: SR
[21] = test system: ACHN
[22] = test system: LOX IMVI
[23] = test system: COLO 205
[24] = test system: U-251
[25] = test system: MOLT-4
[26] = test system: MCF7
[27] = test system: 786-0
[28] = test system: HCT-15
[29] = test system: SW-620
[30] = test system: HL-60
[31] = test system: M14
[32] = test system: RPMI-8226
[33] = test system: K562
[34] = test system: SN12C
[35] = test system: SK-MEL-28
[36] = test system: UACC-257
[37] = test system: Malme-3M
[38] = test system: NCI-H23
[39] = test system: UACC-62
[40] = test system: TK-10
[41] = test system: NCI/ADR-RES
[42] = test system: Hs-578T
[43] = test system: SF-539
[44] = test system: HCT-116
[45] = test system: EKVX
[46] = test system: CAKI-1
[47] = test system: RXF 393
[48] = test system: MDA-MB-435
[49] = test system: DU-145
[50] = test system: T47D
[51] = test system: OVCAR-3
[52] = test system: OVCAR-8
[53] = test system: HCC 2998
[54] = test system: PC-3
[55] = test system: OVCAR-5
[56] = test system: HOP-62
[57] = test system: NCI-H226
[58] = test system: NCI-H522
[59] = test system: A498

With `Cc1cc(C)nc(NS(=O)(=O)c2ccc(NC(=O)c3ccc4nc5ccccc5c(Nc5ccc(S(=O)(=O)N=C(N)N)cc5)c4c3)cc2)n1` the GI50 [1] was > 100 µM (inactive), the GI50 [2] was > 100 µM (inactive) and the GI50 [3] was > 100 µM (inactive). The GI50 [4] was > 100 µM (inactive), the GI50 [5] was 68.5 µM (inactive) and the GI50 [6] was > 100 µM (inactive). For the same compound, the GI50 [7] was > 100 µM (inactive), the GI50 [8] was > 100 µM (inactive) and the GI50 [9] was > 100 µM (inactive). The GI50 [10] was > 100 µM (inactive), the GI50 [11] was > 100 µM (inactive) and the GI50 [12] was > 100 µM (inactive). The GI50 [13] was > 100 µM (inactive), the GI50 [14] was > 100 µM (inactive) and the GI50 [15] was > 100 µM (inactive). The GI50 [16] was > 100 µM (inactive), the GI50 [17] was 32.4 µM (inactive) and the GI50 [18] was > 100 µM (inactive). The GI50 [19] was > 100 µM (inactive), the GI50 [20] was > 100 µM (inactive) and the GI50 [21] was > 100 µM (inactive). The GI50 [22] was > 100 µM (inactive), the GI50 [23] was > 100 µM (inactive) and the GI50 [24] was > 100 µM (inactive). The GI50 [25] was > 100 µM (inactive), the GI50 [26] was > 100 µM (inactive) and the GI50 [27] was > 100 µM (inactive). The GI50 [28] was > 100 µM, the GI50 [29] was > 100 µM (inactive) and the GI50 [30] was > 100 µM (inactive). For the same compound, the GI50 [31] was > 100 µM (inactive), the GI50 [32] was > 100 µM (inactive) and the GI50 [33] was 46.6 µM (inactive). For the same compound, the GI50 [34] was > 100 µM (inactive), the GI50 [35] was > 100 µM (inactive) and the GI50 [36] was > 100 µM (inactive). The GI50 [37] was > 100 µM (inactive), the GI50 [38] was > 100 µM (inactive) and the GI50 [39] was > 100 µM (inactive). For the same compound, the GI50 [40] was > 100 µM (inactive), the GI50 [41] was > 100 µM (inactive) and the GI50 [42] was > 100 µM (inactive). The GI50 [43] was > 100 µM (inactive), the GI50 [44] was > 100 µM (inactive) and the GI50 [45] was > 100 µM (inactive). For the same compound, the GI50 [46] was > 100 µM (inactive), the GI50 [47] was > 100 µM (inactive) and the GI50 [48] was > 100 µM (inactive). For the same compound, the GI50 [49] was > 100 µM (inactive), the GI50 [50] was > 100 µM (inactive) and the GI50 [51] was > 100 µM (inactive). For the same compound, the GI50 [52] was > 100 µM (inactive), the GI50 [53] was > 100 µM (inactive) and the GI50 [54] was > 100 µM (inactive). For the same compound, the GI50 [55] was > 100 µM (inactive), the GI50 [56] was > 100 µM (inactive) and the GI50 [57] was > 100 µM (inactive). The GI50 [58] was > 100 µM (inactive).
`C[C@H](CCC1=NCCN1)[C@H]1CC[C@H]2[C@@H]3[C@H](O)C[C@@H]4C[C@H](O)CC[C@]4(C)[C@H]3CC[C@]12C` was tested, and the GI50 [1] was 14.6 µM (inactive), the GI50 [2] was 14.9 µM (inactive) and the GI50 [3] was 14.6 µM (inactive). For the same compound, the GI50 [4] was 19.1 µM (inactive), the GI50 [5] was 12.7 µM (inactive) and the GI50 [6] was 15.5 µM (inactive). The GI50 [7] was 12.3 µM (inactive), the GI50 [8] was 13.4 µM (inactive) and the GI50 [9] was 10.6 µM (inactive). For the same compound, the GI50 [10] was 13.2 µM (inactive), the GI50 [11] was 16.7 µM (inactive) and the GI50 [12] was 2.54 µM (inactive). For the same compound, the GI50 [14] was 12 µM (inactive), the GI50 [15] was 16.3 µM (inactive) and the GI50 [16] was 11.8 µM (inactive). The GI50 [17] was 8.89 µM (inactive), the GI50 [18] was 11.7 µM (inactive) and the GI50 [19] was 17.3 µM (inactive). For the same compound, the GI50 [21] was 16.4 µM (inactive), the GI50 [59] was 13.3 µM (inactive) and the GI50 [22] was 10.3 µM (inactive). The GI50 [23] was 8.57 µM (inactive), the GI50 [24] was 12.8 µM (inactive) and the GI50 [25] was 11.1 µM (inactive). For the same compound, the GI50 [26] was 15.2 µM (inactive), the GI50 [27] was 14.6 µM (inactive) and the GI50 [28] was 16.5 µM. For the same compound, the GI50 [29] was 15.6 µM (inactive), the GI50 [30] was > 10 µM (inactive) and the GI50 [31] was 15.3 µM (inactive). For the same compound, the GI50 [32] was 14.7 µM (inactive), the GI50 [33] was 6.3 µM (inactive) and the GI50 [34] was 21.1 µM (inactive). The GI50 [35] was 14.2 µM (inactive), the GI50 [36] was 15 µM (inactive) and the GI50 [37] was 15.6 µM (inactive). For the same compound, the GI50 [38] was 14.3 µM (inactive), the GI50 [39] was 11.4 µM (inactive) and the GI50 [40] was 13.8 µM (inactive). The GI50 [41] was 28.8 µM (inactive), the GI50 [42] was 12.4 µM (inactive) and the GI50 [43] was 12.9 µM (inactive). For the same compound, the GI50 [44] was 13.6 µM (inactive), the GI50 [45] was 17.9 µM (inactive) and the GI50 [46] was 24 µM (inactive). For the same compound, the GI50 [47] was 15.8 µM (inactive), the GI50 [48] was 13.7 µM (inactive) and the GI50 [49] was 14.3 µM (inactive). For the same compound, the GI50 [50] was 14.8 µM (inactive), the GI50 [51] was 13.7 µM (inactive) and the GI50 [52] was 15.6 µM (inactive). For the same compound, the GI50 [53] was 15.2 µM (inactive), the GI50 [54] was 8.85 µM (inactive) and the GI50 [55] was 14.5 µM (inactive). The GI50 [56] was 16.1 µM (inactive), the GI50 [57] was 15 µM (inactive) and the GI50 [58] was 14.7 µM (inactive).
For `COc1ccc(C(=O)N(C(=S)OCCOc2ccccc2)c2ccccc2)cc1`, the GI50 [1] was 31.3 µM (inactive), the GI50 [2] was 24.5 µM (inactive) and the GI50 [3] was 0.0457 µM (active). For the same compound, the GI50 [4] was 52.7 µM (inactive), the GI50 [5] was 14.9 µM (inactive) and the GI50 [6] was 29.2 µM (inactive). The GI50 [7] was 49.9 µM (inactive), the GI50 [8] was 83.8 µM (inactive) and the GI50 [9] was 1.63 µM (inactive). The GI50 [10] was 44 µM (inactive), the GI50 [11] was 86.1 µM (inactive) and the GI50 [12] was 40.4 µM (inactive). For the same compound, the GI50 [13] was 31.1 µM (inactive), the GI50 [14] was 34.1 µM (inactive) and the GI50 [15] was 22.9 µM (inactive). The GI50 [17] was 20 µM (inactive), the GI50 [18] was > 100 µM (inactive) and the GI50 [19] was 35.1 µM (inactive). For the same compound, the GI50 [21] was 44.9 µM (inactive), the GI50 [59] was 18.4 µM (inactive) and the GI50 [22] was 52 µM (inactive). For the same compound, the GI50 [23] was 30.5 µM (inactive), the GI50 [24] was 46.1 µM (inactive) and the GI50 [25] was 19.7 µM (inactive). For the same compound, the GI50 [26] was 42 µM (inactive), the GI50 [27] was 47.9 µM (inactive) and the GI50 [28] was 44.2 µM. The GI50 [29] was 50 µM (inactive), the GI50 [30] was 20.2 µM (inactive) and the GI50 [31] was 43.3 µM (inactive). For the same compound, the GI50 [32] was 14.6 µM (inactive), the GI50 [33] was 23.8 µM (inactive) and the GI50 [34] was 43.8 µM (inactive). For the same compound, the GI50 [35] was > 100 µM (inactive), the GI50 [36] was 34.8 µM (inactive) and the GI50 [37] was 28.4 µM (inactive). For the same compound, the GI50 [38] was 32.4 µM (inactive), the GI50 [39] was 48 µM (inactive) and the GI50 [40] was 61 µM (inactive). For the same compound, the GI50 [41] was 37.2 µM (inactive), the GI50 [42] was 65.2 µM (inactive) and the GI50 [43] was 40.3 µM (inactive). The GI50 [44] was 29.2 µM (inactive), the GI50 [45] was 31.6 µM (inactive) and the GI50 [46] was 47 µM (inactive). For the same compound, the GI50 [47] was 26.5 µM (inactive), the GI50 [48] was 31.7 µM (inactive) and the GI50 [49] was 37.1 µM (inactive). For the same compound, the GI50 [50] was 19.9 µM (inactive), the GI50 [51] was 38 µM (inactive) and the GI50 [52] was 52.2 µM (inactive). The GI50 [53] was 34.4 µM (inactive), the GI50 [54] was 35.4 µM (inactive) and the GI50 [55] was 88.3 µM (inactive). The GI50 [56] was 71.3 µM (inactive) and the GI50 [58] was 23.7 µM (inactive).
